Test results from patent US5089516A, “1-phenyl-3,5-pyrazolidinedione hydroxystyrene compounds which have tyrosine kinase inhibiting activity” (Kanegafuchi Kagaku Kogyo Kabushiki Kaisha, priority 1987, dated 1992).
Converted amounts (≈) assume the structure as drawn.

Key:
[1] = molecular target: T1, reverse transcriptase derived from Moloney-Murine Leukemia Virus (M-MLV) (Moloney murine leukemia virus, UniProt P03355); experiment: Inhibiting activity against reverse transcriptase derived from M-MLV; assay type: biochemical; conditions: read-out: Inhibition rate (reverse transcriptase derived from M-MLV); for inhibition at 1 µM: 1 μM in the reaction mixture; for inhibition at 10 µM: 10 μM in the reaction mixture
T1 construct: reverse transcriptase derived from Moloney-Murine Leukemia Virus; purchased Pharmacia K. K
Experimental: There was found the following point by using reverse transcriptase derived from Moloney-Murine Leukemia Virus (hereinafter referred to as "M-MLV").
The compound of the present invention was dissolved in DMSO to give a 100 mM solution thereof. Then, the solution was diluted with distilled water containing DMSO to give a solution of the test compound having a defined concentration. A mixed ratio of DMSO and distilled water was adjusted so that the concentration of DMSO at this time is 10% by volume and a final concentration of DMSO at the beginning of a reaction is 1% by volume.
The thus prepared solution of the test compound was mixed with a solution containing 50 mM of Tris--HCl buffer (pH 8.3), 8 mM of MgCl2, 30 mM of NaCl, 50 mM of dithiothreitol (made by Wako Pure Chemical Industries Ltd.), 0.2 mM of thymidine-5'-triphosphate (made by Pharmacia K. K.) and 6 U/ml of reverse transciptase derived from M-MLV (made by Pharmacia K. K.), and preincubated at 37° C. for 30 minutes. After there was added thereto 10 μg/ml of polyadenylic acid (made by PL Biochemicals Co., Ltd.), 0.01 U/ml of oligodeoxy thymidylic acid (made by Pharmacia K. K.) and 10 μCi/ml of [methyl-^3 H] thymidine-5'-triphosphate (made by Amersham Japan Co., Ltd., 47 Ci/mmol) to give a reaction mixture, the mixture was further incubated at 37° C. for 30 minutes, followed by cooling with ice to stop the reaction.
The radioactivity incorporated into deoxyribonucleic acids was measured according to the method of Linteril et al (Science 170, 447 to 449 (1967)). A defined volume of the reaction mixture was soaked into DE-81 filter paper (made by Whatman Ltd.), the filter paper was washed with 5% by weight of Na2 HPO4 solution for three times, and with distilled water and ethanol successively, and then dried. Radioactivity contained in the filter paper was measured by liquid scintillation counter to give the each radioactivity of the test solution groups.
On the other hand, the same procedure as above was carried out using DMSO-distilled water without the test compound instead of using the test solution, to give the value of radioactivity of a control group.
Reverse transcriptase derived from M-MLV inhibition rate (%) was calculated by the following equation. [formula]

[2] = tested on: Micrococcus luteus IFO 13867; experiment: Antibacterial activity (MIC) against Micrococcus luteus IFO 13867; assay type: cell-based; conditions: IFO13867, 37° C., 18 to 20 hours
Experimental: (§1) The antibacterial activity against Gram-positive bacteria of the compound of the present invention was measured according to a standard method of Nippon Kagaku Ryoho Gakkai [Nippon Kagaku Ryoho Gakkaishi (Journal of the Chemical therapy of Japan), 29, 76(1981)].
(§2) As for gram-positive bacteria, after cultivation in Meuller Hinton broth medium (made by Difco Co., Ltd.), there was prepared a bacterial suspension for inoculation containing about 10^6 of the bacteria per 1 ml of the Meuller Hinton broth medium. On the other hand, the test compound was added to Mueller Hinton agar medium (made by Difco Co., Ltd.) so as to give agar plate medium containing test samples which are twofold serial diluted. Then, the above-mentioned bacterial suspension for inoculation was streaked to each agar medium for about 2 cm with a looped nichrome wire (inner diameter: about 1 mm).
(§3) After that the each agar plate medium was cultured at 37° C. for 18 to 20 hours, the growth of the test bacteria was determined.

[3] = tested on: Bacillus subtilis IFO 3134; experiment: Antibacterial activity (MIC) against Bacillus subtilis IFO 3134; assay type: cell-based; conditions: IFO3134, 37° C., 18 to 20 hours
Experimental: as §1, §2, §3

[4] = tested on: antigen-induced airway constriction; experiment: Inhibitory activity against antigen-induced airway constriction in actively sensitized guinea pigs; assay type: in vivo; conditions: Cavia porcellus, read-out: Inhibition rate (airway constriction)
Experimental: (3) Inhibitory activity against antigen-induced airway constriction in actively sensitized guinea pigs
That is, the sensitized guinea pigs (5 guinea pigs/group) were provided with artificial respiration by inserting a tracheal cannula under urethane anesthesia (1.5 g/kg body weight, intraperitoneal administration), and then, gallamine at 1 mg/kg body weight was injected intravenously to stop spontaneous respiration of the guinea pigs. Inhalation of 0.5% aqueous solution of ovalbumin was conducted using a nebulizer for 1 minute to increase antigen-induced airway constriction, at the same time, airway pressure was recorded through a transducer. Test compound was administered into jugular vein (i.v.) of the guinea pig 3 minutes before the antigen inhalation or administered orally (p.o.) 2 hours before the antigen inhalation. As a positive control compound, theophylline which was a drug for anti-asthma was used. The effect of the compound was estimated by calculating the maximum value of airway constriction (%) in comparison with the control group, according to the following equation. [formula]

[5] = tested on: passive cutaneous anaphylaxis (PCA) reaction; experiment: Inhibitory activity against homologous PCA reaction in rats; assay type: in vivo, male Wistar rats; conditions: Rattus norvegicus, 100 mg/kg, oral, 1 hour before antigen, read-out: Inhibition rate (PCA reaction)
Experimental: (1) Inhibitory activity against homologous PCA reaction in rats
Antiserum was prepared according to I. Mota [Immunology, 7, 681(1964)]and the PCA reaction was conducted according to Maruyama et al. [Folia Pharmacologica Japonica, 74, 179(1978}].
An ovalbumin solution dissolved in physiological saline (2 mg/ml) was injected intramuscularly into both thighs of male Wistar rats weighing 200 to 260 g in a volume of 0.5 ml/100 g body weight, and pertussis vaccine (Bordetella pertussis, 2×10^10 /ml/ Chiba Serum Institute) was intraperitoneally administered at 1 ml/rat. Twelve days after sensitization, blood was taken from posterior aorta under ether anesthesia and serum was separated and stored at -80° C.
In each group, 4 male Wistar rats weighing 180 to 210 g were used. Back of the rats was shaved and reach 0.05 ml of antiserum diluted 32 times with physiological saline was injected intradermally at four sites on the back. After 48 hours, 1 ml of a mixture of ovalbumin (2 mg/ml) as an antigen and Evans blue (10 mg/ml) in the volume ratio of 1 : 1, which was dissolved in physiological saline was injected intravenously into the tail. Thirty minutes later, the rats were bled to death under ether anesthesia and the back skin of the rats was removed. The blue-dyed area formed by pigment exudation was measured and an inhibition rate (%) was calculated as compared with control according to the following equation. [formula]
A test compound suspended in a 2.5 % aqueous solution of gum arabic containing 0.2 % Tween 80 was administered orally in a volume of 0.5 m:/100 g body weight 1 hour before the injection of antigen. To the control group, only the vehicle was administered. Tranilast which was a positive control compound was administered orally 30 minutes before the injection of antigen.

[6] = iv, 3 minutes before antigen inhalation

In the case of `O=C1NC(=S)SC1=Cc1cc(Cc2ccccc2)c(O)c(Cc2ccccc2)c1` [Compound 2], the inhibition at 1 µM [1] is reported as 95%, the MIC [2] is reported as ≤ 6 µg/mL and the MIC [3] is reported as ≤ 6 µg/mL.
`O=C1NC(=S)SC1=Cc1cc(O)c(O)c(CSc2ccccc2)c1` [Compound 7] was tested, and the inhibition at 1 µM [1] was 98% and the inhibition in vivo at 1 mg/kg [4, 6] was 25%.
For `O=C1NC(=S)SC1=Cc1cc(CSc2ccccc2)c(O)c(OCc2ccccc2)c1` [Compound 8], the inhibition at 1 µM [1] was 98% and the inhibition in vivo at 1 mg/kg [4, 6] was 43%.
`CCCCOc1cc(C=C2SC(=S)NC2=O)cc(CSc2ccccc2)c1O` [Compound 9] gave an inhibition at 1 µM [1] of 73% and an inhibition in vivo at 1 mg/kg [4, 6] of 20%.
For `CCCCOc1cc(C=C2SC(=S)NC2=O)cc(Cc2ccccc2)c1O` [Compound 10], the inhibition at 10 µM [1] was 61%.
`O=C1Nc2ccccc2C1=Cc1cc(O)c(O)c(CSc2ccccc2)c1` [Compound 11] was tested, and the inhibition at 1 µM [1] was 94%, the MIC [2] was 12 µg/mL (≈ 32 µM) and the MIC [3] was ≤ 6 µg/mL. For the same molecule, the inhibition in vivo at 1 mg/kg [4, 6] was 52% and the inhibition in vivo at 30 mg/kg ([4]; po, 30 mg/kg, 2 hours before antigen inhalation) was 26%.
With `O=C1NN(c2ccccc2)C(=O)C1=Cc1cc(Cc2ccccc2)c(O)c(Cc2ccccc2)c1` [Compound 20] the inhibition at 10 µM [1] was 97%, the MIC [2] was ≤ 50 µg/mL and the MIC [3] was 50 µg/mL (≈ 109 µM).
`O=C1NN(c2ccccc2)C(=O)C1=Cc1cc(O)c(O)c(Cc2ccccc2)c1` [Compound 24] gave an inhibition at 1 µM [1] of 91%.
`O=C1N=C(NCc2ccccc2)SC1=Cc1cc(Cc2ccccc2)c(O)c(Cc2ccccc2)c1` [Compound 26] gave an inhibition at 10 µM [1] of 76% and an inhibition in vivo at 1 mg/kg [4, 6] of 68%.
`O=C1N=C(NCc2cccs2)SC1=Cc1cc(CSc2ccccc2)c(O)c(OCc2ccccc2)c1` [Compound 31] was tested, and the inhibition at 10 µM [1] was 61%.
Work on `CC(C)c1cc(C=C2SC(NCc3ccccc3)=NC2=O)cc(C(C)C)c1O` [Compound 33] yielded an inhibition in vivo at 100 mg/kg [5] of 50% and an inhibition in vivo at 2 mg/kg ([4]; iv, 2 mg/kg, 3 minutes before antigen inhalation) of 26%.
In the case of `CC(C)c1cc(C=C2SC(NCc3ccc(F)cc3)=NC2=O)cc(C(C)C)c1O` [Compound 35], the inhibition in vivo at 100 mg/kg [5] is reported as 43%.
With `CC(C)c1cc(C=C2SC(NCc3ccc(Cl)c(Cl)c3)=NC2=O)cc(C(C)C)c1O` [Compound 37] the inhibition in vivo at 100 mg/kg [5] was 21% and the inhibition in vivo at 1 mg/kg [4, 6] was 21%.
With `Cc1ccc(CNC2=NC(=O)C(=Cc3cc(C(C)C)c(O)c(C(C)C)c3)S2)cc1` [Compound 39] the inhibition in vivo at 100 mg/kg [5] was 65% and the inhibition in vivo at 1 mg/kg [4, 6] was 59%.
For `CC(C)c1cc(C=C2SC(NCc3ccc(S(N)(=O)=O)cc3)=NC2=O)cc(C(C)C)c1O` [Compound 41], the inhibition in vivo at 100 mg/kg [5] was 25% and the MIC [3] was 25 µg/mL (≈ 52.8 µM).
For `CC(C)c1cc(C=C2SC(NCc3ccc(N)cc3)=NC2=O)cc(C(C)C)c1O` [Compound 42], the inhibition at 10 µM [1] was 50% and the inhibition in vivo at 5 mg/kg ([4]; iv, 5 mg/kg, 3 minutes before antigen inhalation) was 33%.
